Results taken from ChEMBL document CHEMBL1135603, “Modeling of binding modes and inhibition mechanism of some natural ligands of farnesyl transferase using molecular docking” (J Med Chem, 2002).

How the values were obtained:
[1] = target: Protein farnesyltransferase (Rattus norvegicus, UniProt Q02293+Q04631); assay: Inhibition of Farnesyltransferase; type: protein-complex assay
[2] = Partition coefficient (logP); type: physicochemical; settings: octanol/water

SMILES | IC50 [1] [µM] | logP [2]
CC(=O)O[C@H]1CC[C@]2(C=O)[C@H](CC[C@@]3(C)[C@H]2C=C(C)[C@@]2(C)C(O)=C(C)C(=O)[C@]23C(=O)O)C1(C)C [ANDRASTATIN A] | 24.9 | 1.7
CC(=O)O[C@H]1CC[C@]2(CO)[C@H](CC[C@@]3(C)[C@H]2C=C(C)[C@@]2(C)C(O)=C(C)C(=O)[C@]23C(=O)O)C1(C)C [ANDRASTATIN B] | 47.1 | 1.6
CC(=O)O[C@H]1CC[C@]2(C)[C@H](CC[C@@]3(C)[C@H]2C=C(C)[C@@]2(C)C(O)=C(C)C(=O)[C@]23C(=O)O)C1(C)C [ANDRASTATIN C] | 13.3 | 2.7
COC(=O)C1=CC(CO)=COc2oc3cccc(O)c3c(=O)c21 [FUSIDIENOL] | 0.3 | 1.8

The remaining lines, values ahead:

IC50 [1] [µM] | logP [2] | SMILES
0.9 |  | CC(C)CCCC(C)C1CCC2C3C(CC[C@]12C)[C@@](C)(CCC(=O)O)C(=O)C[C@@H]3C (some centres not stated)
0.19 |  | CC(C)CCCC(C)C1CCC2C3CCC(=O)[C@](C)(C[C@@H](CC(=O)O)C(=O)O)C3CC[C@]12C (some centres not stated)
0.36 | 1.8 | C=C1C(=O)O[C@@H]2[C@H]3C[C@@]4(C)C=CC3(CC43C(=O)O[C@@H]4C5C(C)=CC(=O)C5=C(C)C[C@H](CC(=O)CC(C)C)C43)[C@](C)(O)CC[C@@H]12 (some centres not stated) [ARTEMINOLIDE]
 | 1.3 | CC(C)=CCC/C(C)=C/CC/C(C)=C/CC/C(=C\C(=O)O)C(=O)O [SCHIZOSTATIN E]
300 | 1.4 | CC(C)=CCC/C(C)=C/CC/C(C)=C/CC/C(=C/C(=O)O)C(=O)O [SCHIZOSTATIN Z]
0.012 | 2 | C=C(CC[C@]12O[C@H](C(=O)O)[C@@](O)(C(=O)O)[C@](C(=O)O)(O1)[C@H](OC(=O)/C=C/[C@@H](C)C[C@@H](C)CC)[C@H]2O)[C@@H](OC(C)=O)[C@H](C)Cc1ccccc1 [ZARAGOZIC ACIDS A]
